Key:
[1] = system: 3T3-L1 adipocyte cell line; assay: Lipolysis of triglycerides (glycerol release) in 3T3-L1 adipocyte cell line; format: cell-based, rodent
[2] = system: stromal vascular (SV) cells from human adipose tissue; assay: Triglyceride (TG) content of differentiating primary cultures of SV cells; format: cell-based; conditions: day 11
Experimental: Abdominal adipose tissue (Exp. 1-5) and thigh adipose tissue (Exp. 5b) were obtained from middle-aged females with body mass indexes <30.0 during liposuction or elective surgery. Subsequently, tissue was minced and enzymatically digested for 45 min in a Krebs-Ringer buffer containing 1 mg/mL collagenase (CLS-1, Worthington Biochemical Corp, Lakewood, N.J.), 15 mg/mL bovine serum albumin (BSA), 5 mM glucose and 100 mM HEPES (pH 7.4). Digestion was carried out at a 5 mL/1 g ratio (digestion solution: tissue mass). The digesta was then filtered through 200- and 60-micron mesh and pelleted at 600×g for 5 min. The SV cells were resuspended in a RBC lysis buffer for 10 min and then filtered and recentrifuged to remove contaminating […]. Cultures of SV cells were grown in proliferation medium containing 90% DME/Ham's F-10 (1:1, v/v), 10% (v/v) fetal bovine serum (FBS), 15 mM HEPES (pH 7.4), 60 U/mL penicillin, 60 U/mL streptomycin, and 25 ug/mL fungizone. Cultures were incubated at 37° C. in a humidified […]:CO2 (90:10%) atmosphere. SV cells were grown to 80% confluency and then cryopreserved in liquid nitrogen in aliquots (2×10^6 cells/mL).
Cryopreserved aliquots were subsequently thawed, seeded in T-150 flasks (e.g., 1 vial per 2 T-150 flasks), and grown in proliferation media until 80% confluent. At this time the cells were removed via trypsinization, seeded (3×10^4/cm^2, except for Exp. 1) in 24-well or 96-well (Exp. 5b) Falcon dishes, and allowed to attach for 24 h in proliferation medium. Following attachment, cultures were grown in differentiation medium for the next 3 d which contained DME/Ham's F-10 (1:1,v/v), 15 mM HEPES (pH 7.4), 33 uM biotin, 17 uM pantothenate, 100 nM human insulin, 1 uM dexamethasone (DEX), 60 U/mL penicillin, 60 U/mL streptomycin, 25 ug/mL fungizone, 0.25 mM isobutylmethylxanthine (IBMX), and TZD (Exp. 1 & 2=BRL 49653; Exp. 3-5=Zen Bio's proprietary reagent). Thereafter, cultures were exposed to adipocyte medium consisting of 90% DME/Ham's F-10 (1:1,v/v), 15 mM HEPES (pH 7.4), 3% FBS (v/v), 33 uM biotin, 17 uM pantothenate, 100 nM human insulin, 1 uM DEX, 60 U/mL penicillin, 60 U/mL streptomycin, and 25 ug/mL fungizone. Adipocyte media was replaced every 3 d. […] After 18 day in culture, the majority of the cells contained visual lipid droplets.
Experiment 1 was designed to determine optimal culturing conditions during differentiation of primary cultures of SV cells isolated from human adipose tissue. Specifically, the experiment was designed to determine how seeding density and thiazolidinedione (TZD; PPARγ-agonist BRL 49653) concentration influenced TG content (ug/10^6cells). SV cells were seeded at increasing densities (2-, 3-, or 4×10^4/cm^2) in differentiation media containing 0, 1, or 10 uM TZD (BRL 49653) in this 3×3 factorial design. All cultures received the same adipocyte media after 3 d of differentiation. The cultures were harvested on day 11-12 of differentiation and TG content and cell number were measured. Another set of cultures was stained with Oil Red O and counterstained with Mayer's hematoxylin to assess cellular differentiation potential (n=3 per treatment combination).
In Experiment 2 the impact of linoleic acid and the trans-10, cis-12 isomer of CLA on TG accumulation in these cells was examined. SV cells were seeded at a density of 3×10^4/cm^2 and continuously treated with either 10 uM linoleic acid, 100 uM linoleic acid, 10 uM trans-10, cis-12 CLA, or 100 uM trans-10, cis-12 CLA, and grown under our normal differentiation protocol. One set of control cultures contained only vehicle (BSA) and another contained vehicle plus TZD (BRL 49653). TG content and cell number were measured on day 11 of differentiation.
The objective of Experiment 3 was to evaluate the dose response of trans-10, cis-12 CLA, cis-9, trans-11 CLA, and linoleic acid on TG content of the cultures. […]

[3] = system: PPARγ2; assay: PPARγ2 protein expression in 3T3-L1 preadipocytes; format: cell-based, murine
[4] = system: 3T3-L1 preadipocytes; assay: TG content of 3T3-L1 preadipocytes; format: cell-based, murine
[5] = system: 3T3-L1 preadipocytes; assay: Fatty acid composition of neutral and phospholipid fractions of treated cultures; format: cell-based, murine
[6] = system: aP2; assay: aP2 protein expression in 3T3-L1 preadipocytes; format: cell-based, murine
[7] = system: stromal vascular (SV) cells from human adipose tissue; assay: De novo lipogenesis (14C-glucose incorporation into cellular lipid); format: cell-based; conditions: Exp. 5a
Experimental: Experiments 5a and 5b were designed to determine if the trans-10, cis-12 CLA-mediated reduction in TG content was due to decreased lipogenesis and/or increased lipolysis. In Experiment 5a (lipogenesis), SV cells were seeded at a density of 3×10^4/cm^2 and continuously treated with increasing concentrations (3, 10, or 30 uM) of either linoleic acid, cis-9, tran-11 CLA, or trans-10, cis-12 CLA. A set of control cultures received vehicle (BSA) plus TZD. All cultures received differentiation media (days 1-3), adipocyte media (days 4-9), and low-glucose (˜5 mM) adipocyte media (days 10-12) prior to measuring de novo lipogenesis. On day 12, ^14C-labeled glucose incorporation into the lipid fraction of the cultures was measured for 2 h and, following lipid extraction, the radioactivity in the lipid fraction was determined by scintillation counting. Time course data (not shown) indicated a linear increase in radiolabeled glucose incorporation into lipid over 2 h.
Incorporation of ^14C-glucose into cellular lipid was determined on day 12 of differentiation in cultures chronically treated with fatty acids or vehicle. Following the addition of fatty acids and low glucose (˜5 mM) medium to the cultures on day 12, 1.0 μCi [U-^14C]-glucose ([U-^14C]-D-glucose; SA ˜250 mCi/mmol, ICN, Costa Mesa, Calif.)/mL medium was added to the cultures for 2 h. Our time course study (data not shown) indicated a linear increase in radiolabeled glucose incorporation into lipid over a 2 h period. After 2 h, media containing unincorporated ^14C-glucose was immediately removed and the cultures were washed with 1 mL HBSS to remove unincorporated ^14C-glucose. An additional 1 mL of HBSS was added and, after vigorous tritaration, cells were transferred to glass vials. Five milliliters of a chloroform:methanol (2:1) solution was added to each vial and they were vortexed for 1 min. All samples were then centrifuged for 5 min at 1000×g to further separate the hydrophobic and hydrophilic phases. The lower hydrophobic phase was removed from the tubes and dried under nitrogen at 40° C. Five milliliters of scintillation cocktail (Scinti Verse, Fisher Scientific, Norcross, Ga.) was added to each sample, and the ^14C content was determined by liquid scintillation counting on a Beckman LS 6000 Scintillation Counter (Beckman Instruments, Palo Atlo, Calif.). […] The radioactivity in the lipid fraction from these cultures was subtracted from the total counts. Cell numbers were determined from parallel treatment groups in separate culture dishes at the time of radioisotope addition to the medium. Therefore, mean ^14C-glucose incorporation is expressed as cpm/10^6 cells.

`CCCCC/C=C\C=C\CCCCCCCCC(=O)O` [trans-10, cis-12 CLA, 10-trans, 12-cis conjugated linoleic acid] was tested. Which “Glycerol release by the cells” value [1] did it give?
The value was “increased glycerol release”.

And the “Less TG (ug/10^6 cells) than TZD-supplemented vehicle control cultures” value ([2]; Exp. 2, 10 uM, continuous treatment)?
The value was 76%.

What about the “TG content vs other treatments / TZD treated vehicle controls” value ([2]; Exp. 2, 100 uM, continuous treatment) of the same compound?
Its value is “not significantly different”.

What about the “TG content vs TZD treated vehicle controls” value ([2]; Exp. 3, 30 uM) of the same compound?
Its value is “not significantly different”.

What about the “TG content, dose response” value ([2]; Exp. 3, 1-10 uM) of the same compound?
Its value is “decreased”.

And the “Less TG content compared to TZD treated vehicle controls” value ([2]; Exp. 4, 10 uM alone)?
The value was “approximately 60%”.

What about the PPARγ2 protein expression ([3]; after 6 d of treatment) of the same compound?
Its PPARγ2 protein expression is “decreased”.

What about the “PPARγ2 protein expression compared to BSA controls” value ([3]; day 2 of differentiation) of the same compound?
The value was “increased PPARγ2 expression”.

What about the PPARγ2 protein expression ([3]; day 4 of differentiation) of the same compound?
The PPARγ2 protein expression was “no effect on PPARγ2 protein expression”.

And the “TG content, treatment during only the first 3 d of differentiation” value [4]?
Its value is “not sufficient to lower TG concentrations”.

What about the “Triglyceride content in 3T3-L1 adipocyte cells” value ([4]; 3T3-L1 adipocyte cell line) of the same compound?
Its value is “decreasing triglyceride content”.

And the TG-lowering effect ([4]; 3T3-L1 preadipocytes)?
Its TG-lowering effect is “responsible for the TG-lowering effects”.

What about the “TG content, treatment during entire period of differentiation” value ([4]; vs treatment during last 3 d) of the same compound?
The value was “reduced TG content to a greater extent than treatment during the last 3 d of differentiation”.

And the “Amount of cis-9 oleic acid” value [5]?
The value was “increased”.

What about the “Level of linoleic acid (18:2)” value [5] of the same compound?
The value was “increased”.

And the “Amount of cis-11 oleic acid (18:1) compared to BSA controls” value ([5]; 50 uM, neutral and polar lipid fractions)?
The value was “lower amounts”.

And the “Amount of palmitoleic acid (16:1) compared to BSA controls” value ([5]; 50 uM, neutral lipid fraction)?
The value was “lower amounts”.

What about the “Arachidonic acid (AA) in the phospholipid fraction” value ([5]; increasing level in culture) of the same compound?
Its value is “dose-dependent increase”.

And the “Incorporation into cellular lipid fractions” value ([5]; neutral and phospholipid fractions)?
Its value is “incorporated into the neutral and phospholipid fractions”.

What about the aP2 protein expression ([6]; after 6 d of treatment) of the same compound?
The aP2 protein expression was “decreased”.

And the aP2 protein expression ([6]; day 2 or 4 of differentiation)?
The aP2 protein expression was “did not affect aP2 protein expression”.

What about the “Less 14C-glucose incorporated into cellular lipid compared to TZD treated vehicle controls” value ([7]; 30 uM, day 12, 2 h) of the same compound?
The value was 80%.

And the “Incorporation of 14C-glucose into cellular lipid per 10^6 cells, dose response” value ([7]; 3, 10, 30 uM, day 12)?
The value was “decreased”.
